Where a SMILES comes first, the peptide text is derived from it. [ ]: non-standard residue; d: D form.

The subject of one experiment is PKC-βII. As to the kind of experiment: Competitive binding assay using cell extracts (Western blot). Set-up: species or system human; key: —: no detectable affinity; Low to very low affinity at 10X or 20X or both PRE concentrations in at least one cell line in the cell extract assay; Low affinity in purified isoform assay.; Moderate affinity at 10X or 20X or both PRE concentrations in at least one cell line in the cell extract assay.; High affinity at 10X or 20X or both PRE concentrations in at least one cell line in the cell extract assay; High affinity in purified isoform assay. To be noted: Cell extract; PRE 10X or 20X antibody concentration. The protocol: (§1) Binding efficiency and specificity of the peptides PRE 2, 3, 4, 5, 6, 7, 8, 9, 10, 11, 12 and 13 (see Table 4) was also tested using cytoplasmic extracts from different cell lines expressing appropriate PKC isoforms as described for Example 1. Briefly, the protein cytoplasmic extracts were separated by electrophoresis and transferred onto nitrocellulose membranes by standard Western blotting procedures. The bands on the Western blots were detected with matching primary antibodies and alkaline phosphatase conjugated secondary antibody. The bands were then scanned and the relative density measurements obtained.
(§2) This procedure to assess the binding characteristics of the PREs is based on competition binding of the PRE with the primary anti-isoform PKC specific antibodies. The lower the measured band density, the greater the binding of the PRE to the PKC isoform. The PREs were added at 10 and 20 times (10×, 20×) the primary antibody concentration, according to classical competition between antigenic peptide and primary antibody. The following cell lines (obtained from the ATCC) were used: H661—NCI human lung carcinoma NSCLC; MDAMB231—human highly invasive breast cancer cell line from pleural effusion; LS180—human colon adenocarcinoma; LnCAP—human prostate adenocarcinoma; CCD16Lu—human lung fibroblasts; Du145—human prostate carcinoma brain metastasis, and T24—human bladder carcinoma.
(§3) In these cases, the 20× band density figures relative to control and 10× values were reliable.
On the technique in general: Immunoblotting shows a protein as a band on a membrane.

In another experiment the target is T1, PKC-ζ (Homo sapiens, UniProt Q05513).
T1 sequence (Q05513 1-592): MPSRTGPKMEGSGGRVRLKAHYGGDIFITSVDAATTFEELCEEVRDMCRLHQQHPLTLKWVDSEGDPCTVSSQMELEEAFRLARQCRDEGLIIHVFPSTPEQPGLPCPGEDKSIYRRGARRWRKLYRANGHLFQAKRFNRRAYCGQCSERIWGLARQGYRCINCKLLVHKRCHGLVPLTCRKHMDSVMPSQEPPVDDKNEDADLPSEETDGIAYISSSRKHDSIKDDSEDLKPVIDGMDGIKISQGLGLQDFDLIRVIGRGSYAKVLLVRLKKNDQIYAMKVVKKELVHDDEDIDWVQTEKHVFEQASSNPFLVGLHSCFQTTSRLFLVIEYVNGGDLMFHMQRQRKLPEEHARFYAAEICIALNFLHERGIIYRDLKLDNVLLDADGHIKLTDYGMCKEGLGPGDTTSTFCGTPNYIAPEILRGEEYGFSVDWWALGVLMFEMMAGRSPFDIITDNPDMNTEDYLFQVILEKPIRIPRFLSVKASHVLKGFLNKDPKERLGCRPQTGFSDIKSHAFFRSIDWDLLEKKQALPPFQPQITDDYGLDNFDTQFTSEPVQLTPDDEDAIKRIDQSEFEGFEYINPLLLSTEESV
The description is as above. Also noted: cytoplasmic extracts from different cell lines expressing appropriate PKC isoforms; endogenous in cells; host or cells: H661, CCD16Lu, LnCAP, MDAMB231, Du145; key: —: no detectable affinity; Low to very low affinity at 10X or 20X or both PRE concentrations in at least one cell line in the cell extract assay; Low affinity in purified isoform assay.; Moderate affinity at 10X or 20X or both PRE concentrations in at least one cell line in the cell extract assay.; High affinity at 10X or 20X or both PRE concentrations in at least one cell line in the cell extract assay; High affinity in purified isoform assay. To be noted: Cell extract; PRE 10X or 20X antibody concentration. As for the experimental part:
as §1, §2, §3

The target of another experiment is PKC-α (Homo sapiens, UniProt P17252). As to the kind of experiment: Competition of PRE with PKC-α antibody binding, Protocol B (peptide added to cell extract before electrophoresis), IMR-32. Also noted: endogenous PKC-α in (A) untreated human neuroblastoma (IMR-32) cells; endogenous in cells; host or cells: IMR-32 human neuroblastoma cells. As for the experimental part:
(§4) Peptides PRE 3 and PRE 4 (see Table 4) were tested for their ability to interfere with the binding of isoform-specific polyclonal antibodies (Santa Cruz Biotechnology, Inc.) to PKC-α, PKC-βI or PKC-βII using the general protocol described in Example 3.

In another experiment the test system is PKC-ε. As to the kind of experiment: Competition of PRE with PKC-ε antibody binding, Protocol B, IMR-32. Also noted: species or system human. The protocol: Peptides PRE 2, PRE 3 and PRE 4 (see Table 4) were tested for their ability to interfere with the binding of isoform-specific polyclonal antibodies (Santa Cruz Biotechnology, Inc.) to […] using the general protocol described in Example 3. Two bands, representing alternate splicing variants of PKC-ε, were identified on the Western blot using this anti-PKC-ε antibody.

Another experiment has as its target PKC-βI (Homo sapiens, UniProt P05771). As to the kind of experiment: Competition of PRE with PKC-βI antibody binding, Protocol B, IMR-32. Set-up: PKC-βII by PRE 3 and PRE 4 in IMR-32 Neuroblastoma; endogenous in cells; host or cells: IMR-32 human neuroblastoma cells. Conditions: for Band Intensity: Protocol B (control 170.5). The protocol:
The ability of the peptides PRE 2 and PRE 3 (see Table 4) to interfere with the binding of a PKC-α-specific polyclonal antibody (Santa Cruz Biotechnology, Inc.) to PKC-α was determined using a modified version of the protocol outlined above in which the test peptide was added directly to the cell extract prior to electrophoresis at a concentration of either 5× or 15× the concentration of the protein applied to each well of the gel for the Western blots (20 μg).
as §4

Setting [1] is: 100 μg, Example 5 (control 302.5).
[2] abbreviates: 200 μg, Example 5 (control 302.5).
The mark [3] stands for this setting: 300 μg, Example 5 (control 302.5).

Sequence of PKC-βI (P05771 whole entry): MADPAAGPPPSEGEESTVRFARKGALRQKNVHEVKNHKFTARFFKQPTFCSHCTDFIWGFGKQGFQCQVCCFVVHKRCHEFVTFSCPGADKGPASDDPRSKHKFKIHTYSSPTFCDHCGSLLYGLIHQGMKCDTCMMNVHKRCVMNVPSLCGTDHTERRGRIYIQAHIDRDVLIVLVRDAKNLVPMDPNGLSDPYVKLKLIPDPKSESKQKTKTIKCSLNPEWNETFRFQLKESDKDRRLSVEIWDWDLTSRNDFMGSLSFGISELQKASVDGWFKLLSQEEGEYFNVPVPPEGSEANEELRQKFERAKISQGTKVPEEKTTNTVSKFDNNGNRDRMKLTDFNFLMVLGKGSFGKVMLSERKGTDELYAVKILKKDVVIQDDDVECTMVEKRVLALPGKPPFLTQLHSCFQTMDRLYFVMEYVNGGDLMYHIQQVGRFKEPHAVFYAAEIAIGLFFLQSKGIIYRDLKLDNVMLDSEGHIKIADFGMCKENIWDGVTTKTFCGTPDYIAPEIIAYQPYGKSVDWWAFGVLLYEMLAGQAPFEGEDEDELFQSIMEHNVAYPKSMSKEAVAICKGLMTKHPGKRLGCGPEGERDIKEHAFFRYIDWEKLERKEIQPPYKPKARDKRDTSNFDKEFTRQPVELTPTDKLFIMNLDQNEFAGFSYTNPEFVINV

Consider `CC[C@H](C)[C@H](NC(=O)[C@H](CO)NC(=O)[C@@H](NC(=O)CNC(=O)[C@@H](NC(=O)[C@H](CC(C)C)NC(=O)[C@H](CC(N)=O)NC(=O)[C@H](CCC(N)=O)NC(=O)[C@H](C)NC(=O)[C@H](CC(=O)O)NC(=O)CNC(=O)CNC(=O)[C@H](CCCCN)NC(=O)[C@@H](NC(=O)[C@H](CCC(=O)O)NC(=O)[C@H](CCC(N)=O)NC(=O)[C@@H](NC(=O)CNC(=O)[C@H](CCCCN)NC(=O)[C@H](C)NC(C)=O)[C@@H](C)CC)C(C)C)[C@@H](C)CC)[C@@H](C)CC)C(N)=O` [PRE 3] (Ac-AKGIQEVKGGDAQNLIGISI-NH2), for which the “Affinity for PKC isoform βII” value in the experiment with PKC-βII is given as “L”. Moreover, the “Affinity for PKC isoform ζ” value at PKC-ζ was “—”. Moreover, the “Band Intensity” value was 0.0 on PKC-α (100 μg, Example 3 (control 0.759)); 0.0 at PKC-α (setting [1]); 0.0 on PKC-α (200 μg, Example 3 (control 0.759)); 0.0 on PKC-α (setting [2]); 0.0 on PKC-α (300 μg, Example 3 (control 0.759)); 0.0 on PKC-α (setting [3]). The “Band Intensity” value on PKC-βI (100 μg), at PKC-βI (200 μg) and on PKC-βI (300 μg) was 0.0 in each case. The “Inhibition (%)” value with PKC-ε (20 μg, PKC-ε Band 1) is reported as 99.0%; in the experiment with PKC-ε (20 μg, PKC-ε Band 2), 100.0%; with PKC-ε (50 μg, PKC-ε Band 1), 100.0%; in the experiment on PKC-ε (50 μg, PKC-ε Band 2) it was 100.0%; in the experiment with PKC-ε (100 μg, PKC-ε Band 1), 100.0%; in the experiment with PKC-ε (100 μg, PKC-ε Band 2), 100.0%. Also, the “Relative Intensity (%)” value in the experiment on PKC-ε (20 μg, PKC-ε Band 1) was determined as 0.12%; in the experiment with PKC-ε (20 μg, PKC-ε Band 2), 0.0%; with PKC-ε (50 μg, PKC-ε Band 1), 0.0%; with PKC-ε (50 μg, PKC-ε Band 2) it was 0.0%; in the experiment on PKC-ε (100 μg, PKC-ε Band 1) it was 0.0%; in the experiment on PKC-ε (100 μg, PKC-ε Band 2), 0.0%. The “Relative Intensity (%)” value on PKC-βI (200 μg, Protocol B) was found to be 0.0%.

Turning to `CC[C@H](C)[C@H](NC(=O)[C@H](CO)NC(=O)[C@@H](NC(=O)CNC(=O)[C@@H](NC(=O)[C@H](CC(C)C)NC(=O)[C@H](CC(N)=O)NC(=O)[C@H](CCC(N)=O)NC(=O)[C@H](C)NC(=O)[C@H](CC(=O)O)NC(=O)[C@H](CCCCN)NC(C)=O)[C@@H](C)CC)[C@@H](C)CC)C(N)=O` [PRE 4, Ac-KDAQNLIGISI-NH2] (Ac-KDAQNLIGISI-NH2), the “Affinity for PKC isoform βII” value in the experiment on PKC-βII is recorded as “L”. Also, the “Affinity for PKC isoform ζ” value at PKC-ζ is listed as “—”. The “Band Intensity” value on PKC-α (setting [1]) was 32.2; on PKC-α (setting [2]) it was 1.5; at PKC-α (setting [3]), 0.0; on PKC-βI (100 μg) it was 112.5; at PKC-βI (200 μg), 0.0; on PKC-βI (300 μg), 0.0. The “Inhibition (%)” value with PKC-ε (20 μg, PKC-ε Band 1) turned out to be 42.9%; with PKC-ε (20 μg, PKC-ε Band 2) it was 46.6%; in the experiment on PKC-ε (50 μg, PKC-ε Band 1) it was 100.0%; with PKC-ε (50 μg, PKC-ε Band 2), 100.0%; with PKC-ε (100 μg, PKC-ε Band 1) it was 100.0%; with PKC-ε (100 μg, PKC-ε Band 2) it was 100.0%. Besides, the “Relative Intensity (%)” value in the experiment on PKC-ε (20 μg, PKC-ε Band 1) came to 57.1%; in the experiment with PKC-ε (20 μg, PKC-ε Band 2), 53.33%; in the experiment with PKC-ε (50 μg, PKC-ε Band 1), 0.0%; in the experiment on PKC-ε (50 μg, PKC-ε Band 2) it was 0.0%; with PKC-ε (100 μg, PKC-ε Band 1), 0.0%; in the experiment with PKC-ε (100 μg, PKC-ε Band 2), 0.0%.

Regarding `CC[C@H](C)[C@H](NC(=O)[C@H](CO)NC(=O)[C@@H](NC(=O)CNC(=O)[C@@H](NC(=O)[C@H](CC(C)C)NC(=O)[C@H](CC(N)=O)NC(=O)[C@H](CCC(N)=O)NC(=O)[C@H](C)NC(=O)[C@H](CC(=O)O)NC(=O)[C@H](CCCCN)NC(=O)CNC(=O)CNC(=O)[C@H](CCCCN)NC(=O)[C@@H](NC(=O)[C@H](CCC(=O)O)NC(=O)[C@H](CCC(N)=O)NC(=O)[C@@H](NC(=O)CNC(=O)[C@H](CCCCN)NC(=O)[C@H](C)NC(C)=O)[C@@H](C)CC)C(C)C)[C@@H](C)CC)[C@@H](C)CC)C(N)=O` [PRE 5] (Ac-AKGIQEVKGGKDAQNLIGISI-NH2), the “Affinity for PKC isoform βII” value in the experiment with PKC-βII is reported as “H”. Further, at PKC-ζ, the “Affinity for PKC isoform ζ” value is on record as “L/H”.

For Ac-ISIGILNQADK-NH2 [PRE 10], the “Affinity for PKC isoform βII” value in the experiment with PKC-βII was “—”. The “Affinity for PKC isoform ζ” value with PKC-ζ was “M/L”.

Regarding “Ac-ISIGILQNADK-NH2 (not fully specified; printed as Ac-ISIGILQNADK-NH2) [PRE 7]”, in the experiment with PKC-ζ, the “Affinity for PKC isoform ζ” value is on record as “—”.

Consider Ac-KDANQLIGISI-NH2 [PRE 6], for which the “Affinity for PKC isoform ζ” value in the experiment with PKC-ζ is recorded as “—”.

For Ac-KDAQNLI-NH2 [PRE 12], the “Affinity for PKC isoform βII” value in the experiment with PKC-βII is “L”. Besides, the “Affinity for PKC isoform ζ” value with PKC-ζ is on record as “M/H”.

Consider Ac-RDAQNLI-NH2 [PRE 13], for which the “Affinity for PKC isoform ζ” value in the experiment with PKC-ζ is given as “—”.

For the molecule Ac-RDAQNLIGISI-NH2 [PRE 11], the “Affinity for PKC isoform ζ” value with PKC-ζ is reported as “—”.

In the case of “Ac-isigilqnadk-NH2 (Ac-[dI][dS][dI]G[dI][dL][dQ][dN][dA][dD][dK]-NH2; SMILES CC[C@@H](C)[C@@H](NC(C)=O)C(=O)N[C@H](CO)C(=O)N[C@@H](C(=O)NCC(=O)N[C@@H](C(=O)N[C@H](CC(C)C)C(=O)N[C@H](CCC(N)=O)C(=O)N[C@H](CC(N)=O)C(=O)N[C@H](C)C(=O)N[C@H](CC(=O)O)C(=O)N[C@H](CCCCN)C(N)=O)[C@H](C)CC)[C@H](C)CC) [PRE 9]”, the “Affinity for PKC isoform βII” value in the experiment with PKC-βII was “—”. Besides, in the experiment with PKC-ζ, the “Affinity for PKC isoform ζ” value is reported as “M/L”.

ILEDKGGDAQNLIGISI [PRE 8]: in the experiment with PKC-βII, the “Affinity for PKC isoform βII” value was “H”.

Regarding RRKKGGKDFVVKR [PRE 1], in the experiment with PKC-ζ, the “Affinity for PKC isoform ζ” value is listed as “L”.
